Experimental data published in patent US8338465B2, “Cyclic carboxylic acid rhodanine derivatives for the treatment and prevention of tuberculosis” (priority 2006, dated 2012).

The compounds below were run against T1, dihydrolipoamide acyltransferase (DlaT) (Mycobacterium tuberculosis, UniProt P9WIS7) (assay: DlaT inhibition (Dlat IC50); DTNB peroxidase assay with Lpd, DlaT and AhpD). Details: Table 1, Compounds A1 to A294; read-out: Dlat IC50 category.
T1 sequence (P9WIS7 1-553): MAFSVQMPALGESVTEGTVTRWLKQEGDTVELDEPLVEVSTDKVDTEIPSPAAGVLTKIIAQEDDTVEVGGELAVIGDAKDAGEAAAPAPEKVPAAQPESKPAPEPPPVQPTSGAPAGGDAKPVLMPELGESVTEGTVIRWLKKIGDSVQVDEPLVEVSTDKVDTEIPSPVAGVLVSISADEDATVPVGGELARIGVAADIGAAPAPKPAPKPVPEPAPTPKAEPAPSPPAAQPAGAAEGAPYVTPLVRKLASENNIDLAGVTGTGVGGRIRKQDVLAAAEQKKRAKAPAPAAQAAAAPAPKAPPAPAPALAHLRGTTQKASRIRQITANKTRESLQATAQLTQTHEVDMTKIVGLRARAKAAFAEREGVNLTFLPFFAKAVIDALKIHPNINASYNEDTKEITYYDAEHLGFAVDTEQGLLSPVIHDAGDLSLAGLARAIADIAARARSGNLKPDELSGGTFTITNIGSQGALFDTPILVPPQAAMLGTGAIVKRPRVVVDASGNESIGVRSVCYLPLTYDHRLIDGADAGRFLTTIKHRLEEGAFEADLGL
Type: biochemical

Row | Compound | IC50
1 | O=C(O)CCc1cccc(N2C(=O)C(=Cc3ccc(-c4cccc(Cl)c4)o3)SC2=S)c1 [Compound A119] | < 10 µM
2 | O=C(O)CCc1cccc(N2C(=O)C(=Cc3ccc(-c4ccc(Cl)cc4)o3)SC2=S)c1 [Compound A120] | < 10 µM
3 | O=C(O)c1cccc(N2C(=O)C(=Cc3ccc(-c4cc(Cl)cc(Cl)c4)o3)SC2=S)c1 [Compound A121] | 11 to 40 µM
4 | CN(C)Cc1ccc(-c2ccc(C=C3SC(=S)N(c4cccc(C(=O)O)c4)C3=O)o2)cc1 [Compound A122] | 11 to 40 µM
5 | O=C(O)c1cccc(N2C(=O)C(=Cc3ccc(-c4ccc(Br)cc4)o3)SC2=S)c1 [Compound A123] | 11 to 40 µM
6 | O=C(O)c1cccc(N2C(=O)C(=Cc3ccc(-c4ccc(O)cc4Cl)o3)SC2=S)c1 [Compound A124] | < 10 µM
7 | CN(C)c1cccc(-c2ccc(C=C3SC(=S)N(c4cccc(C(=O)O)c4)C3=O)o2)c1 [Compound A125] | < 10 µM
8 | C#Cc1ccc(-c2ccc(C=C3SC(=S)N(c4cccc(C(=O)O)c4)C3=O)o2)cc1 [Compound A126] | 11 to 40 µM
9 | O=C(O)c1cccc(N2C(=O)C(=Cc3ccc(-c4cccc([N+](=O)[O-])c4)o3)SC2=S)c1 [Compound A127] | < 10 µM
10 | O=C(O)c1ccc(Cl)c(N2C(=O)C(=Cc3ccc(-c4cccc([N+](=O)[O-])c4)o3)SC2=S)c1 [Compound A128] | < 10 µM
11 | O=C(O)c1cccc(N2C(=O)C(=Cc3ccc(-c4ccccc4[N+](=O)[O-])o3)SC2=S)c1 [Compound A129] | > 41 µM
12 | O=C(O)c1cccc(N2C(=O)C(=Cc3ccc(-c4ccc([N+](=O)[O-])cc4)o3)SC2=S)c1 [Compound A130] | 11 to 40 µM
13 | O=C(O)c1cccc(N2C(=O)C(=Cc3ccc(-c4ccc(Cl)cc4[N+](=O)[O-])o3)SC2=S)c1 [Compound A131] | 11 to 40 µM
14 | O=C(O)c1cccc(N2C(=O)C(=Cc3ccc(-c4ccccc4Br)o3)SC2=S)c1 [Compound A132] | 11 to 40 µM
15 | CC(C)(C)c1ccc(-c2ccc(C=C3SC(=S)N(c4cccc(C(=O)O)c4)C3=O)o2)c(O)c1 [Compound A133] | < 10 µM
16 | Cc1ccccc1-c1ccc(C=C2SC(=S)N(c3cccc(C(=O)O)c3)C2=O)o1 [Compound A134] | 11 to 40 µM
17 | COc1ccccc1-c1ccc(C=C2SC(=S)N(c3cccc(C(=O)O)c3)C2=O)o1 [Compound A135] | < 10 µM
18 | O=C(O)c1ccc(Cl)c(N2C(=O)C(=Cc3ccc(-c4ccc(N5CCOCC5)cc4)o3)SC2=S)c1 [Compound A137] | < 10 µM
19 | O=C(O)c1cccc(N2C(=O)C(=Cc3ccc(-c4ccccc4F)o3)SC2=S)c1 [Compound A138] | 11 to 40 µM
20 | COc1ccccc1-c1ccc(C=C2SC(=S)N(c3cc(C(=O)O)ccc3F)C2=O)o1 [Compound A139] | < 10 µM
21 | COc1ccccc1-c1ccc(C=C2SC(=S)N(c3cc(C(=O)O)ccc3Cl)C2=O)o1 [Compound A140] | < 10 µM
22 | COc1ccccc1-c1ccc(C=C2SC(=S)N(c3cc(C(=O)O)ccc3C)C2=O)o1 [Compound A141] | < 10 µM
23 | COc1ccccc1-c1ccc(C=C2SC(=S)N(c3cccc(C(=O)O)c3C)C2=O)o1 [Compound A142] | < 10 µM

Row | Compound | IC50
24 | N#Cc1c(F)cccc1-c1ccc(C=C2SC(=S)N(c3cccc(C(=O)O)c3)C2=O)o1 [Compound A143] | 11 to 40 µM
25 | Cc1ccccc1-c1ccc(C=C2SC(=S)N(c3cc(C(=O)O)ccc3F)C2=O)o1 [Compound A144] | < 10 µM
26 | Cc1ccccc1-c1ccc(C=C2SC(=S)N(c3cc(C(=O)O)ccc3C)C2=O)o1 [Compound A145] | < 10 µM
27 | COc1ccc(-c2ccc(C=C3SC(=S)N(c4cccc(C(=O)O)c4)C3=O)o2)cc1Cl [Compound A146] | < 10 µM
28 | Cc1ccc(-c2ccc(C=C3SC(=S)N(c4cccc(C(=O)O)c4)C3=O)o2)cc1 [Compound A147] | 11 to 40 µM
29 | Cc1cc(F)ccc1-c1ccc(C=C2SC(=S)N(c3cccc(C(=O)O)c3)C2=O)o1 [Compound A148] | < 10 µM
30 | Cc1cc(F)ccc1-c1ccc(C=C2SC(=S)N(c3cc(C(=O)O)ccc3F)C2=O)o1 [Compound A149] | < 10 µM
31 | Cc1ccc(-c2ccc(C=C3SC(=S)N(c4cccc(C(=O)O)c4)C3=O)o2)c(F)c1 [Compound A150] | 11 to 40 µM
32 | Cc1ccc(-c2ccc(C=C3SC(=S)N(c4cc(C(=O)O)ccc4F)C3=O)o2)c(F)c1 [Compound A151] | < 10 µM
33 | COc1ccc(-c2ccc(C=C3SC(=S)N(c4cccc(C(=O)O)c4)C3=O)o2)cc1 [Compound A152] | 11 to 40 µM
34 | O=C(O)c1cccc(N2C(=O)C(=Cc3ccc(-c4ccc(F)cc4F)o3)SC2=S)c1 [Compound A153] | < 10 µM
35 | O=C(O)c1ccc(F)c(N2C(=O)C(=Cc3ccc(-c4ccc(F)cc4F)o3)SC2=S)c1 [Compound A154] | < 10 µM
36 | Cc1ccc(-c2ccc(C=C3SC(=S)N(c4cccc(C(=O)O)c4)C3=O)o2)c(C)c1 [Compound A155] | 11 to 40 µM
37 | Cc1ccc(-c2ccc(C=C3SC(=S)N(c4cc(C(=O)O)ccc4F)C3=O)o2)c(C)c1 [Compound A156] | < 10 µM
38 | CC(C)(C)OC(=O)Nc1ccccc1-c1ccc(C=C2SC(=S)N(c3cccc(C(=O)O)c3)C2=O)o1 [Compound A157] | > 41 µM
39 | Nc1ccccc1-c1ccc(C=C2SC(=S)N(c3cccc(C(=O)O)c3)C2=O)o1 [Compound A158] | > 41 µM
40 | COc1ccc(-c2ccc(C=C3SC(=S)N(c4cccc(C(=O)O)c4)C3=O)o2)c(C)c1 [Compound A159] | 11 to 40 µM
41 | COc1ccc(-c2ccc(C=C3SC(=S)N(c4cc(C(=O)O)ccc4F)C3=O)o2)c(C)c1 [Compound A160] | < 10 µM
42 | Cc1ccccc1-c1cccc(C=C2SC(=S)N(c3cc(C(=O)O)ccc3F)C2=O)n1 [Compound A161] | < 10 µM
43 | O=C(O)c1cccc(N2C(=O)C(=Cc3ccc(-c4ccccc4O)o3)SC2=S)c1 [Compound A162] | < 10 µM
44 | O=C(O)c1ccc(F)c(N2C(=O)C(=Cc3ccc(-c4ccccc4O)o3)SC2=S)c1 [Compound A163] | < 10 µM
45 | CC(C)(C)OC(=O)Nc1ccccc1-c1ccc(C=C2SC(=S)N(c3cc(C(=O)O)ccc3F)C2=O)o1 [Compound A164] | 11 to 40 µM
46 | Cc1ccc(-c2ccc(C=C3SC(=S)N(c4cc(C(=O)O)ccc4F)C3=O)o2)cc1 [Compound A165] | < 10 µM

Row | Compound | IC50
47 | COc1ccc(-c2ccc(C=C3SC(=S)N(c4cc(C(=O)O)ccc4F)C3=O)o2)cc1 [Compound A166] | < 10 µM
48 | COc1ccc(-c2ccc(C=C3SC(=S)N(c4cccc(C(=O)O)c4)C3=O)o2)c(OC)c1 [Compound A167] | < 10 µM
49 | COc1ccc(-c2ccc(C=C3SC(=S)N(c4cc(C(=O)O)ccc4F)C3=O)o2)c(OC)c1 [Compound A168] | < 10 µM
50 | Cc1cc(Cl)ccc1-c1ccc(C=C2SC(=S)N(c3cccc(C(=O)O)c3)C2=O)o1 [Compound A169] | < 10 µM
51 | Cc1cc(Cl)ccc1-c1ccc(C=C2SC(=S)N(c3cc(C(=O)O)ccc3F)C2=O)o1 [Compound A170] | < 10 µM
52 | Cc1cccc(C)c1-c1ccc(C=C2SC(=S)N(c3cccc(C(=O)O)c3)C2=O)o1 [Compound A171] | 11 to 40 µM
53 | Cc1cccc(C)c1-c1ccc(C=C2SC(=S)N(c3cc(C(=O)O)ccc3F)C2=O)o1 [Compound A172] | < 10 µM
54 | Cc1ccccc1-c1cccc(C=C2SC(=S)N(c3cccc(C(=O)O)c3)C2=O)c1 [Compound A173] | 11 to 40 µM
55 | Cc1ccccc1-c1cccc(C=C2SC(=S)N(c3cc(C(=O)O)ccc3F)C2=O)c1 [Compound A174] | < 10 µM
56 | COc1cc(F)ccc1-c1ccc(C=C2SC(=S)N(c3cccc(C(=O)O)c3)C2=O)o1 [Compound A175] | < 10 µM
57 | COc1cc(F)ccc1-c1ccc(C=C2SC(=S)N(c3cc(C(=O)O)ccc3F)C2=O)o1 [Compound A176] | < 10 µM
58 | COc1ccc(-c2ccc(C=C3SC(=S)N(c4cccc(C(=O)O)c4)C3=O)o2)cc1F [Compound A177] | < 10 µM
59 | COc1ccc(-c2ccc(C=C3SC(=S)N(c4cc(C(=O)O)ccc4F)C3=O)o2)cc1F [Compound A178] | < 10 µM
60 | O=C(O)c1cccc(N2C(=O)C(=Cc3ccc(-c4ccccc4OCc4ccccc4)o3)SC2=S)c1 [Compound A179] | < 10 µM
61 | O=C(O)c1ccc(F)c(N2C(=O)C(=Cc3ccc(-c4ccccc4OCc4ccccc4)o3)SC2=S)c1 [Compound A180] | < 10 µM
62 | Cc1cc(C)c(-c2ccc(C=C3SC(=S)N(c4cc(C(=O)O)ccc4F)C3=O)o2)c(C)c1 [Compound A181] | < 10 µM
63 | Cc1cc(N(C)C)ccc1-c1ccc(C=C2SC(=S)N(c3cccc(C(=O)O)c3)C2=O)o1 [Compound A182] | < 10 µM
64 | Cc1cc(N(C)C)ccc1-c1ccc(C=C2SC(=S)N(c3cc(C(=O)O)ccc3F)C2=O)o1 [Compound A183] | 11 to 40 µM
65 | Cc1cc(C)c(-c2ccc(C=C3SC(=S)N(c4cccc(C(=O)O)c4)C3=O)o2)c(C)c1 [Compound A184] | 11 to 40 µM
66 | CSc1ccccc1-c1ccc(C=C2SC(=S)N(c3cccc(C(=O)O)c3)C2=O)o1 [Compound A185] | < 10 µM
67 | CSc1ccccc1-c1ccc(C=C2SC(=S)N(c3cc(C(=O)O)ccc3F)C2=O)o1 [Compound A186] | < 10 µM
68 | Cc1ccccc1-c1ccc(C=C2SC(=S)N(c3cccc(C(=O)O)c3)C2=O)s1 [Compound A187] | 11 to 40 µM
69 | Cc1ccccc1-c1ccc(C=C2SC(=S)N(c3cc(C(=O)O)ccc3F)C2=O)s1 [Compound A188] | < 10 µM
